# Results taken from patent US10765114B2, “4-amino-6-(pyridyl and 2-substitutedphenyl)-picolinates and 6-amino-2-(pyridyl and 2-substitutedphenyl)-pyrimidine-4-carboxylates and their use as herbicides” (Dow AgroSciences LLC, priority 2013, dated 2020).
# Test system: Key Grass and Sedge Weeds as well as Grass Crops
# Assay: Post-Emergent Test II (Table 6)
# Format: in vivo
# Conditions: post-emergence, 336 h, CYPSS, 140 g ai/ha, 14 days after application, read-out: Visual Growth Reduction (%) 14 Days After Application CYPSS
# In short: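 Post-emergence greenhouse spray, 1st-2nd true leaf stage; track sprayer, 187 L/ha; acetone/DMSO stock diluted in aqueous acetone/IPA/DMSO with Atplus 411F and Triton X-155; rates 1× to 1/16×; subirrigated; visual injury 0 (none) to 100% (complete kill) at 14 days.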
row,SMILES,pest or weed control at 140 g/ha
1,"COC(=O)c1nc(-c2ccc(Cl)c(F)c2OC)nc(N)c1OC [Compound 70, Methyl 6-amino-2-(4-chloro-3-fluoro-2-methoxyphenyl)-5-methoxypyrimidine-4-carboxylate]",0 to 29%

# Same assay, conditions: post-emergence, 336 h, DIGSA: crabgrass (Digitaria sanguinalis), 70 g ai/ha, 14 days after application, read-out: Visual Growth Reduction (%) 14 Days After Application DIGSA
row,SMILES,pest or weed control at 70 g/ha
1,"COC(=O)c1nc(-c2ccc(Cl)c(F)c2OC)nc(N)c1OC [Compound 70, Methyl 6-amino-2-(4-chloro-3-fluoro-2-methoxyphenyl)-5-methoxypyrimidine-4-carboxylate]",0 to 29%

# Same assay, conditions: post-emergence, 336 h, DIGSA: crabgrass (Digitaria sanguinalis), 140 g ai/ha, 14 days after application, read-out: Visual Growth Reduction (%) 14 Days After Application DIGSA
row,SMILES,pest or weed control at 140 g/ha
1,"COC(=O)c1nc(-c2ccc(Cl)c(F)c2OC)nc(N)c1OC [Compound 70, Methyl 6-amino-2-(4-chloro-3-fluoro-2-methoxyphenyl)-5-methoxypyrimidine-4-carboxylate]",0 to 29%

# Same assay, conditions: post-emergence, 336 h, ECHSS, 70 g ai/ha, 14 days after application, read-out: Visual Growth Reduction (%) 14 Days After Application ECHSS
row,SMILES,pest or weed control at 70 g/ha
1,"COC(=O)c1nc(-c2ccc(Cl)c(F)c2OC)nc(N)c1OC [Compound 70, Methyl 6-amino-2-(4-chloro-3-fluoro-2-methoxyphenyl)-5-methoxypyrimidine-4-carboxylate]",0 to 29%

# Same assay, conditions: post-emergence, 336 h, ECHSS, 140 g ai/ha, 14 days after application, read-out: Visual Growth Reduction (%) 14 Days After Application ECHSS
row,SMILES,pest or weed control at 140 g/ha
1,"COC(=O)c1nc(-c2ccc(Cl)c(F)c2OC)nc(N)c1OC [Compound 70, Methyl 6-amino-2-(4-chloro-3-fluoro-2-methoxyphenyl)-5-methoxypyrimidine-4-carboxylate]",0 to 29%

# Same assay, conditions: post-emergence, 336 h, ORYSS (crop), 70 g ai/ha, 14 days after application, read-out: Visual Growth Reduction (%) 14 Days After Application ORYSS
row,SMILES,pest or weed control at 70 g/ha
1,"COC(=O)c1nc(-c2ccc(Cl)c(F)c2OC)nc(N)c1OC [Compound 70, Methyl 6-amino-2-(4-chloro-3-fluoro-2-methoxyphenyl)-5-methoxypyrimidine-4-carboxylate]",0 to 29%

# Same assay, conditions: post-emergence, 336 h, ORYSS (crop), 140 g ai/ha, 14 days after application, read-out: Visual Growth Reduction (%) 14 Days After Application ORYSS
row,SMILES,pest or weed control at 140 g/ha
1,"COC(=O)c1nc(-c2ccc(Cl)c(F)c2OC)nc(N)c1OC [Compound 70, Methyl 6-amino-2-(4-chloro-3-fluoro-2-methoxyphenyl)-5-methoxypyrimidine-4-carboxylate]",0 to 29%

# Same assay, conditions: post-emergence, 336 h, SETFA: giant foxtail (Setaria faberi), 70 g ai/ha, 14 days after application, read-out: Visual Growth Reduction (%) 14 Days After Application SETFA
row,SMILES,pest or weed control at 70 g/ha
1,"COC(=O)c1nc(-c2ccc(Cl)c(F)c2OC)nc(N)c1OC [Compound 70, Methyl 6-amino-2-(4-chloro-3-fluoro-2-methoxyphenyl)-5-methoxypyrimidine-4-carboxylate]",0 to 29%

# Same assay, conditions: post-emergence, 336 h, SETFA: giant foxtail (Setaria faberi), 140 g ai/ha, 14 days after application, read-out: Visual Growth Reduction (%) 14 Days After Application SETFA
row,SMILES,pest or weed control at 140 g/ha
1,"COC(=O)c1nc(-c2ccc(Cl)c(F)c2OC)nc(N)c1OC [Compound 70, Methyl 6-amino-2-(4-chloro-3-fluoro-2-methoxyphenyl)-5-methoxypyrimidine-4-carboxylate]",0 to 29%

# Same assay, conditions: post-emergence, 336 h, SORVU: grain sorghum (Sorghum vulgare), 70 g ai/ha, 14 days after application, read-out: Visual Growth Reduction (%) 14 Days After Application SORVU
row,SMILES,pest or weed control at 70 g/ha
1,"COC(=O)c1nc(-c2ccc(Cl)c(F)c2OC)nc(N)c1OC [Compound 70, Methyl 6-amino-2-(4-chloro-3-fluoro-2-methoxyphenyl)-5-methoxypyrimidine-4-carboxylate]",0 to 29%

# Same assay, conditions: post-emergence, 336 h, SORVU: grain sorghum (Sorghum vulgare), 140 g ai/ha, 14 days after application, read-out: Visual Growth Reduction (%) 14 Days After Application SORVU
row,SMILES,pest or weed control at 140 g/ha
1,"COC(=O)c1nc(-c2ccc(Cl)c(F)c2OC)nc(N)c1OC [Compound 70, Methyl 6-amino-2-(4-chloro-3-fluoro-2-methoxyphenyl)-5-methoxypyrimidine-4-carboxylate]",0 to 29%

# Same assay, conditions: post-emergence, 336 h, TRZSS (crop), 70 g ai/ha, 14 days after application, read-out: Visual Growth Reduction (%) 14 Days After Application TRZSS
row,SMILES,pest or weed control at 70 g/ha
1,"COC(=O)c1nc(-c2ccc(Cl)c(F)c2OC)nc(N)c1OC [Compound 70, Methyl 6-amino-2-(4-chloro-3-fluoro-2-methoxyphenyl)-5-methoxypyrimidine-4-carboxylate]",0 to 29%

# Same assay, conditions: post-emergence, 336 h, TRZSS (crop), 140 g ai/ha, 14 days after application, read-out: Visual Growth Reduction (%) 14 Days After Application TRZSS
row,SMILES,pest or weed control at 140 g/ha
1,"COC(=O)c1nc(-c2ccc(Cl)c(F)c2OC)nc(N)c1OC [Compound 70, Methyl 6-amino-2-(4-chloro-3-fluoro-2-methoxyphenyl)-5-methoxypyrimidine-4-carboxylate]",0 to 29%

# Same assay, conditions: post-emergence, 336 h, ZEAMX: maize, corn (Zea mays), 70 g ai/ha, 14 days after application, read-out: Visual Growth Reduction (%) 14 Days After Application ZEAMX
row,SMILES,pest or weed control at 70 g/ha
1,"COC(=O)c1nc(-c2ccc(Cl)c(F)c2OC)nc(N)c1OC [Compound 70, Methyl 6-amino-2-(4-chloro-3-fluoro-2-methoxyphenyl)-5-methoxypyrimidine-4-carboxylate]",0 to 29%

# Same assay, conditions: post-emergence, 336 h, ZEAMX: maize, corn (Zea mays), 140 g ai/ha, 14 days after application, read-out: Visual Growth Reduction (%) 14 Days After Application ZEAMX
row,SMILES,pest or weed control at 140 g/ha
1,"COC(=O)c1nc(-c2ccc(Cl)c(F)c2OC)nc(N)c1OC [Compound 70, Methyl 6-amino-2-(4-chloro-3-fluoro-2-methoxyphenyl)-5-methoxypyrimidine-4-carboxylate]",0 to 29%

# Test system: not given
# Assay: not given
# Conditions: not given
row,melting point,SMILES
1,60 to 61 °C,"COC(=O)c1nc(-c2ccc(Cl)c(F)c2OC)nc(N)c1OC [Compound 70, Methyl 6-amino-2-(4-chloro-3-fluoro-2-methoxyphenyl)-5-methoxypyrimidine-4-carboxylate]"
